Assay: xn = mol fraction of the nth substance listed
Details: 101 kPa

CCC[N+]1(C)CCCC1.O=S(=O)([N-]S(=O)(=O)C(F)(F)F)C(F)(F)F + O=C1CCCO1
electrical conductivity [S/m]
Details	278.15 K	288.15 K	298.15 K	308.15 K	318.15 K	328.15 K	338.15 K	348.15 K	358.15 K
x1 = 0.0657	0.831	0.987	1.14	1.3	1.46	–	1.8	1.96	–
x1 = 0.1741	0.965	1.18	1.39	–	1.86	2.12	2.35	–	2.82
x1 = 0.3874	–	0.765	0.979	1.22	1.47	1.74	2	–	2.56
